From US8153784B2, “Imaging of enzyme activity” (The General Hospital Corporation, priority 2004, dated 2012)
Values belong to the compound of their own block, whether it stands above or below them.

Columns and labels:
endogenous mouse MPO [1] = biological target: T1, endogenous mouse MPO (Mus musculus, UniProt P11247); test: LPS induced myositis, MR imaging at 4.7 T; type: in vivo; settings: mice with LPS induced myositis
T1 construct: endogenous in cells; host or cells: inflammatory cells recruited by LPS in C57BL6 male mice (Matrigel site in the thigh, or flank muscle myositis)
T1 sequence (P11247 139-718): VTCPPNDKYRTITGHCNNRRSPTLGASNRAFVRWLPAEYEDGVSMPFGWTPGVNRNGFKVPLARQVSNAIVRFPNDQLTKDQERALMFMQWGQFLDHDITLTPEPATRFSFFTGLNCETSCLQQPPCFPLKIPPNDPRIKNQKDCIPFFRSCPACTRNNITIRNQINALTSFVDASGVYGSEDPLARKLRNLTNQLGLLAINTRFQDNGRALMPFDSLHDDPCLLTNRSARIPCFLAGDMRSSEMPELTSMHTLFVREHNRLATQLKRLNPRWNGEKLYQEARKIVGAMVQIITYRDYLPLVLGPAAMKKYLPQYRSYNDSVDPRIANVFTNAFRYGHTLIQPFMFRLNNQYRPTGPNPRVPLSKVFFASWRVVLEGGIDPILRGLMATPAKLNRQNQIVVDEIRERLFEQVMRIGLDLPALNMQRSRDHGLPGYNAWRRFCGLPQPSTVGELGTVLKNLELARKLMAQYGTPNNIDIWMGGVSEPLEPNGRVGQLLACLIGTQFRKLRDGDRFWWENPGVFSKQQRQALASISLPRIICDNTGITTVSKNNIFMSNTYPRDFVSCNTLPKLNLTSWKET
Method: (§1) The MR imaging experiments were performed on a 1.5 T GE Excite scanner and a 4.7 T Bruker Pharmascan scanner. For all MR imaging experiments, precontrast T2-(TR=2000, TE=100, ETL=8, NEX=4, fast spin echo sequence) and T1-weighted images (TR=500, TE=11, NEX=4, spin echo sequence) with fat saturation were initially performed to locate the gels or area of inflammation. The substrates (0.3 mmol/kg) were subsequently injected via the tail vein of the mouse. The mouse was immediately imaged after the injection of the contrast agent using multiple T1-weighted sequences with fat saturation for at least 3 hours.
(§2) Ten-week old C57BL6 male mice were obtained from Jackson Laboratories. A total of 22 mice were used for the study. • 1. MPO/Matrigel imaging experiments: Matrigel™ (Beckton-Dickinson), a […] basement membrane matrix gel was used to immobilize human MPO and glucose oxidase (to supply H2O2 required for detecting MPO oxidative activity, Calbiochem). This was chosen to reflect deposits of human MPO in inflamed tissue in a mouse model. 400 μL of a mixture of Matrigel™ and MEM (Cambrex) was injected slowly into the thighs of each mouse one hour prior to imaging. The right thigh mixture also contained 15 U of MPO and 4 U of glucose oxidase (Calbiochem), while the left thigh mixture contained no enzyme and thus serves as an internal control. […]

endogenous mouse MPO [2] = biological target: T1, endogenous mouse MPO; test: LPS/Matrigel experiments, MR imaging; type: in vivo; settings: mice; LPS/Matrigel
Method: as §1, §2

[3] = biological target: T2, human MPO embedded in Matrigel (Homo sapiens, UniProt P05164); test: MPO/Matrigel implant mouse model, T1-weighted MR imaging; type: in vivo; settings: mice, right MPO/Matrigel vs left control, 1.5 T
T2 construct: purchased BioDesign, Inc
T2 sequence (P05164 49-745): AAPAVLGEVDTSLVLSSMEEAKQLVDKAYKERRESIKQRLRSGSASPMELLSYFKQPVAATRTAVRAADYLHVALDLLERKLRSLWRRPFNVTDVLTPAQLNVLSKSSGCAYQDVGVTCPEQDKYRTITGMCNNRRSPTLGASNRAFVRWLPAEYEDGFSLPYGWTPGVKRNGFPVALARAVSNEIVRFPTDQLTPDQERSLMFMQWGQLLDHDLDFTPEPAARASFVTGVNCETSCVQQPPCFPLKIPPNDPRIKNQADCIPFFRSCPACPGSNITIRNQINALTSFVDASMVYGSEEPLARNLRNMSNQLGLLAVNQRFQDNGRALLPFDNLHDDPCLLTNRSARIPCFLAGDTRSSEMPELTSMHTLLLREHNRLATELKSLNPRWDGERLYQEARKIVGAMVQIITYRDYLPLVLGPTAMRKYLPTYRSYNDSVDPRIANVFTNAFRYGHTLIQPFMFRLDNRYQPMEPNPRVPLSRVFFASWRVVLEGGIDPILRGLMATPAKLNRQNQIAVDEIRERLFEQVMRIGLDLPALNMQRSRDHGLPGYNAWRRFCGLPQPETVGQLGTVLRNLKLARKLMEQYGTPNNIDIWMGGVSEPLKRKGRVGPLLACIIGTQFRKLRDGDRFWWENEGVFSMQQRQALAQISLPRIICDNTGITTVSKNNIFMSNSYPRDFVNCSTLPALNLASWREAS
Method: To evaluate the monomeric substrates in vivo, we devised a mouse model that harbored 400 μL of Matrigel basement membrane matrix gel mixed 1:1 by volume with a solution containing 15 U of human MPO and glucose oxidase (as a source of hydrogen peroxide) that was injected into the right flank of the mouse. The left flank was injected with the enzyme-free Matrigel mixture. We subsequently performed T1-weighted MR imaging after the intravenous injection of Gd-DTPA-diSer substrate at the dose of […].
as §1
Ten-week old C57BL6 male mice were obtained from Jackson Laboratories. A total of 22 mice were used for the study. • 1. MPO/Matrigel imaging experiments: Matrigel™ (Beckton-Dickinson), a […] basement membrane matrix gel was used to immobilize human MPO and glucose oxidase (to supply H2O2 required for detecting MPO oxidative activity, Calbiochem). This was chosen to reflect deposits of human MPO in inflamed tissue in a mouse model. 400 μL of a mixture of Matrigel™ and MEM (Cambrex) was injected slowly into the thighs of each mouse one hour prior to imaging. The right thigh mixture also contained 15 U of MPO and 4 U of glucose oxidase (Calbiochem), while the left thigh mixture contained no enzyme and thus serves as an internal control. A total of 15 mice were used (3 mice each for 5-HT-DOTA(Gd), bis-5-HT-DTPA(Gd), bis-5-HT-DTPA-^111In, bis-tyramide-DTPA(Gd), and DTPA(Gd)). • 2. LPS/Matrigel experiments (n=3): This model was developed to induce endogeneous mouse MPO secretion and activation. 200 μL total volume Matrigel containing 10% heparin was injected slowly into the thighs of the mice 4 days prior to imaging. The right-sided mixture also contained E. coli lipopolysaccharide (LPS) at 10 μg/mL. One mouse was sacrificed for immunohistochemistry. • 3. Myositis experiments (n=4): LPS at 100 μg/mL in PBS was injected into each mouse intramuscularly in the right flank to produce myositis. The mice are imaged 24 hours after injection.
For normalized signal intensity measured on T1-weighted images, mean±standard deviation (SD) values were calculated in regions of interest (ROI). Contrast-to-noise (CNR) ratios were computed for each ROI according to the formula

MPO [4] = biological target: T3, MPO (Homo sapiens, UniProt P05164); test: SPECT/CT imaging of MPO/Matrigel implants with 67Ga tracer; type: in vivo, mouse
T3 sequence (P05164 49-745): T2 sequence (P05164 49-745)
Method: SPECT imaging and biodistribution: A solution of 80-100 μCi of [^67Ga]—I in 200 μl of saline were injected intravenously into mice prepared as follows: ten-week old C57BL6 male mice (Jackson Laboratories) were injected with 400 μL of a mixture of Matrigel™ (Beckton-Dickinson) and MEM (Cambrex) into the thighs of each mouse one hour prior to imaging. The right thigh mixture also contained 15 U of MPO and 4 μg of glucose oxidase (Calbiochem), while the left thigh mixture contained no enzyme to serve as an internal control. Glucose oxidase was included to ensure local generation of hydrogen peroxide. […] Six hours after injection, the animals were sacrificed and biodistribution was determined in major organs. The % dose accumulated per gram of major organs was determined by using a gamma counter.
To test our hypothesis in vivo, we prepared an inflammation model in mice. The model consisted in the subcutaneous implantation (1 hour before radiotracer injection) of Matrigel/MPO/GO mixture in the right thigh of each mouse. The left thigh mixture contained no enzyme and served as internal control. Matrigel is a basement membrane matrix gel that can be used for immobilizing human MPO and peroxide-generating enzyme. After injecting [^67Ga]—I intravenously, SPECT/CT imaging was performed 4 hours later.

[5] = Biodistribution of 67Ga tracer; type: in vivo, mouse; settings: mice n=4; 6 hours after the injection
Method: SPECT imaging and biodistribution: A solution of 80-100 μCi of [^67Ga]—I in 200 μl of saline were injected intravenously into mice prepared as follows: ten-week old C57BL6 male mice (Jackson Laboratories) were injected with 400 μL of a mixture of Matrigel™ (Beckton-Dickinson) and MEM (Cambrex) into the thighs of each mouse one hour prior to imaging. The right thigh mixture also contained 15 U of MPO and 4 μg of glucose oxidase (Calbiochem), while the left thigh mixture contained no enzyme to serve as an internal control. Glucose oxidase was included to ensure local generation of hydrogen peroxide. The animals were imaged 3 hours after injection on a high resolution X-SPECT/CT system (Gamma Medica). Six hours after injection, the animals were sacrificed and biodistribution was determined in major organs. The % dose accumulated per gram of major organs was determined by using a gamma counter.

MPO [6] = biological target: T3, MPO; test: Ga-3 as oxidoreductase reducing substrate, UV-visible spectra with MPO; type: biochemical
Description: (§3) Compound Ga-3 was further tested in vitro as an oxidoreductase reducing substrate. In a preliminary experiment, horseradish peroxidase (HRP), a model oxidoreductase, was used to test the possibility of enzyme-induced oligomerization. […] Well-defined aromatic band centered at 280 nm broadened over the reaction time and extended beyond 330 nm with some residual absorption in the region 350-500 nm. Extension towards the visible range is associated with the extension of the aromatic system as could be expected in the event of oligomerization. After 6 hours no change was observed and the reaction reaches levels close to 90% of conversion after approximately 2 hours. If MPO was used instead of HRP, the obtained results (see FIG. 20C) were similar.

[7] = biological target: T4, horseradish peroxidase (HRP) (Armoracia rusticana, UniProt P00433); test: Ga-3 as oxidoreductase reducing substrate, UV-visible spectra with HRP/H2O2; type: biochemical; parameters: purchased Sigma; settings: after approximately 2 hours
T4 sequence (P00433 31-338): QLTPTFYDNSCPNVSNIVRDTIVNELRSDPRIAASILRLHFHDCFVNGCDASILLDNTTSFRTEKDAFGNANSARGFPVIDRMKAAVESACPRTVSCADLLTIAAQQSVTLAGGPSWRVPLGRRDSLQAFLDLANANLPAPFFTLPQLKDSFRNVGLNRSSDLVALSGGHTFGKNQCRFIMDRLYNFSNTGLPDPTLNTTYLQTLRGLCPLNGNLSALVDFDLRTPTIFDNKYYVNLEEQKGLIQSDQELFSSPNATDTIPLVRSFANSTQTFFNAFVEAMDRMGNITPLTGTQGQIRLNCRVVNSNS
Description: as §3

enhancement at 50 minutes after injection (endogenous mouse MPO [1]): significant wash-out of the enhancement
difference in enhancement LPS side vs control (endogenous mouse MPO [2]): no significant difference in enhancement
enhancement of MPO implant compared with control implant [3]: no visual difference or CNR difference
enhancement of MPO implant compared with control implant ([3]; listed as Magnevist): did not show any difference
Structure (SMILES): O=C([O-])CN(CCN(CC(=O)[O-])CC(=O)O)CCN(CC(=O)[O-])CC(=O)O.[Gd+3] [DTPA(Gd), reference compound]

difference between right (MPO) and left (control) thigh (MPO [4]; mice, 6 hours after the injection): around 60%
intensity of MPO implant vs control implant (MPO [4]; mouse SPECT/CT fusion images): higher intensity
residual radioactivity in liver [5]: ~1.4%
residual radioactivity in the bowel [5]: ~7.8%
residual radioactivity in the rest of the organs [5]: below 0.5%
Structure (SMILES): CC(=O)N1CCCCCNC(=O)CCC(=O)N2CCCCCNC(=O)CCC(=O)N(CCCCCNC(=O)Cc3c[nH]c4ccc(O)cc34)[O][67Ga]([O]1)[O]2 [[^67Ga]-3]

result with MPO compared with HRP (MPO [6]): similar
conversion [7]: ~90%
Structure (SMILES): CC(=O)N1CCCCCNC(=O)CCC(=O)N2CCCCCNC(=O)CCC(=O)N(CCCCCNC(=O)Cc3c[nH]c4ccc(O)cc34)[O][Ga]([O]1)[O]2 [Ga-3]
